Results: US20130072874A1, “DEVICE HAVING ARRAY PROVIDED WITH FINE PROTRUSIONS” (HISAMITSU PHARMACEUTICAL CO., INC., priority 2010, published 2013)

Test system: shaved dorsal portion of each guinea pig
Test: Suppression of UVB-induced pigmentation, serum applied in advance then device
Assay type: in vivo
Conditions: serum 80 μL (20 μL/cm^2) applied, then 150 μm array device; from the 4th day of device application onward
Procedure: A serum containing 4-(4-hydroxyphenyl)-2-butanol as an active ingredient solution was applied at 80 μL (20 μL/cm^2) to the shaved dorsal portion of each guinea pig, and then, a device having an array provided with microprotrusions was prepared for the purpose of stretching the skin by the microprotrusions of the array. The array was made of polylactic acid as a material and was of 150 μm as the length of the protrusions, 841 protrusions/cm^2 as the density of the protrusions, and 1 cm^2 as the area, and for a device, the array was fixed onto a covering member (holding member) prepared by stacking a rubber-based pressure-sensitive adhesive layer onto a support (3 cm×5 cm) made of nonwoven fabric.

Structure (SMILES): CC(O)CCc1ccc(O)cc1 (stereo not shown) [4-(4-hydroxyphenyl)-2-butanol]
- effect of suppressing pigmentation attributed to UVB irradiation: effect of suppressing pigmentation attributed to UVB irradiation was observed
